In patent publication US20190142738A1, “TRANSDERMAL FORMULATIONS FOR DELIVERY OF CELECOXIB AND ITS USE IN THE TREATMENT OF CELECOXIB-RESPONSIVE DISEASES AND CONDITIONS” (DELIVRA INC., priority 2016, published 2019):
Like-named read-outs stand apart in the source and are kept apart here.

How the values were obtained:
Type in all cases: in vivo
[1] = test system: sodium urate induced synovitis model in Beagle dogs; assay: Caliper measurement of patella/patellar tendon (knee cap) width, percent baseline measure of inflammation, sodium urate induced synovitis model
Experimental: Study Design: The study was a randomized, blinded, preclinical study using a controlled, parallel, matched-group design. Thirty-two subjects meeting the inclusion criteria were enrolled in the trial and allocated to 4 balanced groups; therefore one group received 2 treatments separated by a minimum of 14 days. Following induction of synovitis by sodium urate injections, effectiveness of transdermal formulations were evaluated using a pain questionnaire assessment and joint measurements at various time points. [table] On days 0, 2, 7 and 22, subjects who were schedules for synovitis induction were treated according to their assigned treatment condition. Test article administration occurred 30 minutes following synovitis induction, i.e. sodium urate injection. Transdermal treatment doses were measured in milligrams using an analytical scale and were then applied directly to the induce stifle. Transdermal treatments were rubbed into the dog's skin for a minimum of 1 minute. […] If IV administration of the propofol was not possible due to inaccessibility of the vein, the subjects were masked down using the isoflurane-oxygen mixture and the event was recorded on the anesthesia record. […] Each treatment group had the same number of dogs induced in the left […]) Caliper measurements: Within thirty minutes of synovitis induction and 4.5, 8.5, 24.5 and 30.5 hours following induction (±15 minutes), the width of the patella and the patellar tendon were measured in millimeters using […] 150 mm plastic gauge calipers which measured in increments of 1 mm. […] The cumulative pain scored and stifle measurements were analyzed using a repeated-measures analysis of variance (ANOVA) with the treatment group (7 factors( ) as between-subject measure and time-point (5 factors for pain and 4 factors for the inflammation measure) as a within-subject measure. Post-hoc Fisher's test was used to examine differences as appropriate. The Statistica 11 (Statsoft, Tulsa, Okla.) statistical software package was used with significance set to […].

[2] = test system: sodium urate induced synovitis model in Beagle dogs; assay: Pain questionnaire assessment (cumulative pain score), sodium urate induced synovitis model
Experimental: Study Design: The study was a randomized, blinded, preclinical study using a controlled, parallel, matched-group design. Thirty-two subjects meeting the inclusion criteria were enrolled in the trial and allocated to 4 balanced groups; therefore one group received 2 treatments separated by a minimum of 14 days. Following induction of synovitis by sodium urate injections, effectiveness of transdermal formulations were evaluated using a pain questionnaire assessment and joint measurements at various time points. [table] On days 0, 2, 7 and 22, subjects who were schedules for synovitis induction were treated according to their assigned treatment condition. Test article administration occurred 30 minutes following synovitis induction, i.e. sodium urate injection. Transdermal treatment doses were measured in milligrams using an analytical scale and were then applied directly to the induce stifle. […] If IV administration of the propofol was not possible due to inaccessibility of the vein, the subjects were masked down using the isoflurane-oxygen mixture and the event was recorded on the anesthesia record. […] Specifically, the ability for each dog to walk, trot, gallop, rear, jump over a low obstacle, climb and descend stairs, jump down from a perch and general activity is evaluated in parallel to subjective evaluation of pain observed during each behavior. […]

[3] = Oral and transdermal celecoxib concentrations in canine sera and synovial fluid; settings: dogs; for concentration at 7 days / concentration at 60 min: dog
Excerpt: A Latin Square design was used employing six aged dogs with radiographic evidence of bilateral shoulder osteoarthritis. The treatment cycle consisted of six days twice daily followed by a period of seven days devoid of treatment. Blood and synovial fluid samples (from both stifles and shoulders) were collected on the last (sixth) day of drug application and on the last (seventh) day of the washout period.
Test article: 3% celecoxib in exemplary transdermal base formulation 4; ˜0.5 g gel per shoulder (2) and stifle joint (2) twice daily (i.e. 60 mg celecoxib total twice daily).
Control article: Exemplary transdermal base formulation 5; ˜1 g gel per shoulder joint twice daily.
Positive control: 30 mg celecoxib in capsule PO twice daily.
Serum and Synovial Fluid Collection:
Whole blood and synovial fluid samples were collected from the dogs 60 mins post treatment on the […], and additional samples were collected after a 7 day washout. Baseline synovial fluid was collected from untreated canine subjects. Synovial fluid was collected under sedation (medetomidine, 0.01 mg/kg) and butorphenol (0.1 mg/kg, IV). The fluid was collected by arthrocentesis into the joint following surgical preparation of the area. Synovial fluid was collected from the stifle or shoulder joints.
Analytical Method Development and Quantification:
The method for quantification of celecoxib in serum, plasma and synovial fluid was completed by the National Research Council of Canada (NRC). The results were categorized and summarized for average and deviations for each treatment group and time period.
The objective of this study was to determine if the transdermal formulations of the application were capable of delivering celecoxib either into the systemic circulation and joint synovial fluid and compare transdermal versus oral routes of administration. A canine model was used over two time periods. The first time period consisting of a twice daily drug administration regimen for six days to assess concentrations predictive of chronic use. The second time period followed immediately after, wherein all animals were withdrawn of drug administration and tested after seven days to determine if celecoxib was completely metabolized.

[4] = Oral, 30 mg capsule PO twice daily (60 mg/day), Chronic administration (6 days)
[5] = Transdermal (formulation 4), Washout (7 days)
[6] = Transdermal, 3% celecoxib in formulation 4, 120 mg/day, Chronic administration (6 days)

- concentration at 7 days ([3]; serum, 30 mg, Oral, Washout (7 days), read-out: Serum drug concentration of celecoxib): 0 ng/mL
- concentration at 7 days ([3]; serum, topical, 60 mg, Transdermal (formulation 4), Washout (7 days), read-out: Serum drug concentration of celecoxib): 4 ng/mL
- concentration at 60 min ([3]; serum, topical, 60 mg, Transdermal, 3% celecoxib in formulation 4, 120 mg/day, Chronic administration (6 days), read-out: Serum drug concentration of celecoxib): 221 ng/mL
- concentration at 60 min ([3]; serum, Oral, 30 mg capsule PO twice daily (60 mg/day), Chronic administration (6 days), read-out: Serum drug concentration of celecoxib): 312 ng/mL
- concentration at 7 days ([3]; synovial fluid, 30 mg, Oral, Washout (7 days), read-out: Synovial fluid drug concentration of celecoxib): 1 ng/mL
- concentration at 7 days ([3]; synovial fluid, topical, 60 mg, Transdermal (formulation 4), Washout (7 days), read-out: Synovial fluid drug concentration of celecoxib): 17 ng/mL
- concentration at 60 min ([3]; synovial fluid, topical, 60 mg, Transdermal, 3% celecoxib in formulation 4, 120 mg/day, Chronic administration (6 days), read-out: Synovial fluid drug concentration of celecoxib): 203 ng/mL
- concentration at 60 min ([3]; synovial fluid, Oral, 30 mg capsule PO twice daily (60 mg/day), Chronic administration (6 days), read-out: Synovial fluid drug concentration of celecoxib): 76 ng/mL
- Serum drug concentration of celecoxib [3, 4]: 312 (±214) ng/mL
- Synovial fluid drug concentration of celecoxib [3, 4]: 76 (±57) ng/mL
- Synovial fluid drug concentration of celecoxib ([3]; Oral, Washout (7 days)): 1 (±1) ng/mL
- Serum drug concentration of celecoxib [3, 5]: 4 (±6) ng/mL
- Synovial fluid drug concentration of celecoxib [3, 5]: 17 (±35) ng/mL
- Serum drug concentration of celecoxib [3, 6]: 221 (±227) ng/mL
- Synovial fluid drug concentration of celecoxib [3, 6]: 203 (±165) ng/mL
- amount of drug the transdermal route requires to achieve the same circulating concentration as oral ([3]; chronic treatment, transdermal versus oral): twofold
- reduction of circulating drug concentrations by one week washout ([3]; serum, oral or transdermal): > 95%
- reduction of drug concentration by one week washout ([3]; synovial fluid, oral or transdermal): > 90%
SMILES: Cc1ccc(-c2cc(C(F)(F)F)nn2-c2ccc(S(N)(=O)=O)cc2)cc1 [celecoxib]
- inflammation compared to Voltaren ([1]; 8 hours): significantly reduced inflammation
- percent baseline measure of inflammation (knee cap measurement) in comparison to no treatment ([1]; 24 hours): significantly reduced
- effects on inflammation compared to negative control ([1]; summary statement, no time point stated): no effects
- cumulative pain score in comparison to no treatment ([2]; 4 hours after treatment): significantly reduced
- cumulative pain score in comparison to no treatment ([2]; 8 hours after treatment): significantly reduced
